Data set [1] can be described thus: Aqueous solubility assay, Protocol A, nephelometry method. The format is physicochemical. The following applies: PBS with 5% DMSO, aqueous with cosolvent or surfactant or cyclodextrin, kinetic from dmso stock, PBS pH 7.4, 5% DMSO. The method, then: Aqueous solubility of compounds was determined by nephelometry or by the shake-flask method as follows:
Protocol A, nephelometry method:
Solubility of compounds was measured in PBS (pH 7.4), 5% DMSO at 23° C. Nepheloskan Ascent (Thermo Electron Corporation) nephelometer was used for measurement of light scattering. Tested compounds were dissolved in DMSO to 10 mM. Prior to measurement the compounds were further diluted with PBS in the wells to final compound concentrations of 100, 70, 50, 35, 25, 17, 12 and <10 μg/ml.
The plates were incubated at room temperature for 24 hours to reach equilibrium and the scattered light was measured. Assay validation: Aqueous solubility of acetylsalicylic acid was determined to validate the assay.
The following compounds of Table 2 exemplify such solubility with “−−” meaning solubility<2 μM, “+” meaning 2 μM solubility 100 μM and “++” meaning solubility

Data set [2] in a line: Aqueous solubility assay, Protocol B, shake-flask method. The format is physicochemical. The following applies: aqueous buffer, 10 mM PBS buffer pH 7.4, 1% MeOH, room temperature, read-out: Aqueous solubility pH 7.4 (μM) (±standard deviation), shake-flask method. The method, then:
Protocol B, shake-flask method:
Sample preparation: Sample and standard solution preparation is performed by mixing equal volumes of acetonitrile containing the internal standard (1 μM final concentration) with sample and calibration standard solutions (100 μl). After vigorously shaking (10 seconds) the samples are centrifuged (6000 g) for 5 minutes at 20° C. Aliquots of the particle-free supernatants are transferred to 200 μl sample vials and subsequently subjected to LC-MS/MS. Assay procedure: Test concentration was 100 μM in 10 mM PBS buffer pH 7.4 with a final MeOH concentration of 1%. The volume of the incubation solution was 500 μl. Depending on each compound's solubility in MeOH, the stock concentration and the incubation concentration was adapted. The test solutions in quadruplicates were shaken at 300 rpm over a 20 hours period at room temperature, followed by centrifugation at 20000 g for 30 minutes to separate the solid phase. 100 μl of particle free sample are added to 100 μl acetonitrile containing the internal standard. The aqueous solubility of the compounds was determined by measuring the concentration of the PBS buffer supernatant by HPLC-MS/MS.

The next data set can be described thus: PAMPA permeability assay. It is filed as in vitro ADME. The following applies: % of compound found in the receiver compartment after 16 hours; PBS pH 7.4, 5% DMSO, 23° C. The method, then: Artificial membrane permeability was determined as follows: Tested compounds were dissolved to 10 mM in 100% DMSO. Permeability of compounds was measured in PBS (pH 7.4), 5% DMSO at 23° C. Safire (Tecan) plate reader was used for measurement the UV/Vis absorption. Protocol: Dilute stocks of tested compounds and controls with PBS to 1.67 mM and mix well by pipeitting, add 280 μl of PBS, 5% DMSO to acceptor plate, add 5 μl of 2% L-α-Phosphatidylcholine suspension in dodecane to the membrane of donor plate, Immediately add 98 μl of PBS to donor plate and make the sandwich with acceptor plate. Add 42 μl of tested compounds and controls dilutions to […], cover the plate, place into camera and incubate for 16 hours. Make the equilibrium plate, add 225 μl of PBS, 3,7% DMSO and 25 μl of tested compounds and controls dilutions to UV plate. After 16 hours pull the donor plate out and transfer 250 μl from acceptor plate to UV plate. Scan UV plate on Safire (Tecan) plate reader from […]. Permeability is reported in % of compound found in the receiver compartment after the incubation period.

Data set [3] can be described thus: Mouse microsomal stability assay. The format is in vitro ADME. The following applies: pH 7.4; mouse liver microsomes, 37° C. The method, then: In vitro assays were performed to evaluate the metabolic stability of test items in liver microsomes originating from mouse. Preparation of working standards of test items: Working solutions were prepared for each calibration level by appropriate dilution of the corresponding stock solution, depending on each compound's solubility in acetonitrile or acetonitrile/water. Calibration standards were prepared by spiking 196 μl standard matrix with 4 μl of the corresponding working solution. The standard matrix consists of 0.15 mg/ml of microsomal protein in phosphate buffer (100 mM pH 7.4), the final standard solutions contain 2% acetonitrile. The samples and standard solutions were extracted with ethyl acetate, isolation of the compounds was performed by addition of 600 μl ethyl acetate containing the internal standard (0.1 μM) to 200 μl sample and calibration standard. After vigorously shaking (10 minutes) and centrifugation (5000 g) the aqueous phase was separated by freezing in an acetone/dry ice bath and the organic phase is evaporated to dryness using a vacuum centrifuge. Samples were reconstituted in 200 μl acetonitrile/water mix (1:1 v/v) and subsequently subjected to LC-MS/MS. The incubation solution (180 μl) consisted of 90 μl of a microsomal suspension of 0.33 mg/ml of protein in phosphate buffer 100 mM pH 7.4 and 90 μl NADP-regenerating system. The reaction was initiated by the addition of 20 μl of test compound (in 20% acetonitrile) to the preincubated microsomes/buffer mix at 37° C. 200 μl samples were removed from the incubation after 0, 5, 10, and 30 minutes and processed for ethyl acetate extraction as described above. Negative controls using boiled microsomes (boiling water bath, 25 minutes) without regenerating system were run in parallel. The amount of compound in the samples is expressed as percentage of remaining compound compared to time point zero (=100%). These percentages were plotted against the corresponding time points. Intrinsic clearance (CLint) and half-life (t1/2) estimates were determined using the rate of parent disappearance and following formula (1) and (2). (1) CLint=(−k)×V×fu. (2) t1/2=In2/−k. Where CLint=intrinsic clearance [μl/min/mg protein], t1/2=half life [min], k=slope from the linear regression of log [test compound] versus time plot [1/min]. V=6666.7; fu=unbound fraction in the blood. Applying this protocol gave microsomal stabilities for examples and reference compounds as listed below in Table 9: […]
For orientation: Liver microsomes are a subcellular fraction often used to study metabolism.

For data set [4] the following is noted: The Merck index, 10th edition; cited from earlier work.

Structures are written as SMILES. Converted amounts (≈) assume the structure as drawn. Where two headings read alike, the source gives them in different places.

In the case of `CC(C)c1onc(-c2c(Cl)cccc2Cl)c1CCc1ccc(Oc2ccc(C(=O)O)cc2)cc1` [Compound A, reference compound], in data set [1] (23° C., 24 hours, read-out: Aqueous solubility pH 7.4), the solubility at 24 h was in the range of 2 to 100 µM. Further, the solubility at 20 h in data set [2] amounted to 72.4 µM (≈ 35.9 µg/mL). Moreover, the “PAMPA Permeability” value in the data set “PAMPA permeability assay” was 32%. In data set [3], this molecule had a half-life of 22 min and a microsomal CLint of 207 µL/min/mg.
Take `CC(=O)Oc1ccccc1C(=O)O` [acetylsalicylic acid, reference compound]: the solubility at 24 h in data set [1] (23 °C, at the day of experiment, read-out: Aqueous solubility (assay validation)) was more than 100 µg/mL. Also, in data set [4], the “Aqueous solubility, reported literature value” is given as “at least 2,17 mg/ml”.

Broadly, the solubility is how much of the substance goes into solution per volume. Usually half-life stands for the time in which the quantity being followed falls by half. Low readings indicate fast loss, high ones slow loss. For orientation: microsomal CLint means a measure of how fast metabolising enzymes remove a compound, apart from limits set by blood flow.

The record behind these values is patent US20100184809A1, “Heterocyclic FXR Binding Compounds” (PHENEX PHARMACEUTICALS AG, priority 2006, published 2010).
